Test results taken from patent US9702824B2, “pH sensors” (PROMEGA CORPORATION, priority 2012, dated 2017).

Legend:
[1] = tested on: U2-OS NLS cells (U2-OS cells stably expressing a HaloTag protein with a nuclear localization sequence); assay: Permeability, pulse with sensor and chase with Oregon Green (Example 4); assay type: cell-based; conditions: 0-20 uM pulse for 1 hour
Protocol: Experiments were conducted during development of embodiments of the present invention to determine the permeability and specificity of the pH sensor. U2-OS cells (for specificity) and U2-OS NLS cells (U2-OS cells stably expressing a HaloTag protein with a nuclear localization sequence (NLS); for permeability) were treated with the PBI-4479 sensor. Cells were plated at 40,000 cells/well in 200 ul McCoy's 5A media+10% FBS (“complete media”) onto LTII chamber slides. The cells were then incubated overnight at 37° C., 5% CO2. The cells were then pulsed with PBI-4479 from 0-20 uM for 1 hour. […] Cells were then imaged on an Olympus FV500.

[2] = tested on: wild-type U2-OS cells; assay: Toxicity of HaloTag pH sensors, CELLTITER Glo Cell Viability Assay (Example 9); assay type: cell-based; conditions: 0-10 uM, overnight
Protocol: U2-OS cells were plated at 10,000 cells/well into wells of 96-well plates and incubated overnight. The next day, 0-10 uM (serially diluted 1:2) PBI-4959, PBI-5004 or PBI-4479 was added to the cells and again incubated overnight. After incubation, the media containing the HaloTag® pH sensors was removed, and 100 ul of fresh media (McCoy's 5A+10% FBS) was added. Cell viability was determined using the CELLTITER Glo Cell Viability Assay according to the manufacturer's protocol (Promega Corporation). Luminescence was read on a GloMAX®-Multi luminometer.

With `O=C(NCCOCCOCCOCCOCCOCCOCCCCCCCl)c1ccc(C(=O)[O-])c(-c2c3ccc(=[N+]4CCN(CCCCS(=O)(=O)O)CC4)cc-3oc3cc(N4CCN(CCCCS(=O)(=O)O)CC4)ccc23)c1` [PBI-4479] the “cell permeability (labeling of HaloTag-NLS)” value [1] was “impermeable” and the “toxicity (cell viability)” value [2] was “non-toxicity”.
